# Measured values as given in patent US20130131043A1, “PYRAZOLE COMPOUNDS AS JAK INHIBITORS” (priority 2010, published 2013).
# What was measured:
# JAK3 = biological target: T1, JAK3 (Homo sapiens, UniProt P52333); experiment: Kinobeads assay, JAK3 (competition binding in cell lysate, dot blot detection); settings: mixed Molt4/Ramos lysate
# T1 construct: endogenous in cells; host or cells: Molt4 (ATCC CRL-1582) and Ramos (ATCC CRL-1596) cell lysate; mixed Molt4/Ramos lysate 1:2
# T1 sequence (P52333 1-1124): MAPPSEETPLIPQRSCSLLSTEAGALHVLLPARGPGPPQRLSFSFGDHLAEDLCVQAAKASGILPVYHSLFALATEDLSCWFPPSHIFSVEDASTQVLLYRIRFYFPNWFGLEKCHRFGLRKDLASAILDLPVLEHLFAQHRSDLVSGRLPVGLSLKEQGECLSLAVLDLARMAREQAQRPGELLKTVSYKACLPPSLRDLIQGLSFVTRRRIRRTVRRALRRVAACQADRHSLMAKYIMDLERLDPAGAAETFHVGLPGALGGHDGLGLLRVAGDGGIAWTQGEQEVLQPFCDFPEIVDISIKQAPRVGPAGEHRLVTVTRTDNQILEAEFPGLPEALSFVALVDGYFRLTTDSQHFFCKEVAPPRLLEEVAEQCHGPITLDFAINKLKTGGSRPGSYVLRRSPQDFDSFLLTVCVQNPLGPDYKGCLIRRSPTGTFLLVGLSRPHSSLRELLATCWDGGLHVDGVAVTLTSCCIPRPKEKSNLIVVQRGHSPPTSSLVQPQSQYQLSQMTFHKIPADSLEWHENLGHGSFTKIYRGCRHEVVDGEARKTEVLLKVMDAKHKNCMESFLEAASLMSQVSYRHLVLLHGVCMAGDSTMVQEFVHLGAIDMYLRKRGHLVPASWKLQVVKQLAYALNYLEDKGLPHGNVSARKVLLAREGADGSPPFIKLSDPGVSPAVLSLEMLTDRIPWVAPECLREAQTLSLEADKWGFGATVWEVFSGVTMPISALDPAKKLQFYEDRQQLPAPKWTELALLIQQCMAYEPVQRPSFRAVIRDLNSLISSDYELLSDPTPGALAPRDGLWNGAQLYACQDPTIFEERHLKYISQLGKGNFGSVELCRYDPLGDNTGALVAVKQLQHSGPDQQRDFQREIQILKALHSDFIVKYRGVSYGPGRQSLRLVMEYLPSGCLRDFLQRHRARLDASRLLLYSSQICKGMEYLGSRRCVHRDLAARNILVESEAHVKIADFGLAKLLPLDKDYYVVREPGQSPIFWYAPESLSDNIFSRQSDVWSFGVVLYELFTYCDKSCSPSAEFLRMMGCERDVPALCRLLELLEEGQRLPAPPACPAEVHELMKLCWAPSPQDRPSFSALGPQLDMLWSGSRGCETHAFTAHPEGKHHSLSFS
# Experimental: (§1) The compounds of the present invention as described in the previous examples were tested in a Kinobeads™ assay as described for ZAP-70 (WO-A 2007/137867). Briefly, test compounds (at various concentrations) and the affinity matrix with the immobilized aminopyrido-pyrimidine ligand 24 were added to cell lysate aliquots and allowed to bind to the proteins in the lysate sample. After the incubation time the beads with captured proteins were separated from the lysate. Bound proteins were then eluted and the presence of JAK2 and JAK3 was detected and quantified using specific antibodies in a dot blot procedure and the Odyssey infrared detection system. Dose response curves for individual kinases were generated and IC50 values calculated. Kinobeads™ assays for ZAP-70 (WO-A 2007/137867) and for kinase selectivity profiling (WO-A 2006/134056) have been previously described.
# (§2) 5×DP buffer: 250 mM Tris-HCl pH 7.4, 25% Glycerol, 7.5 mM MgCl2, 750 mM NaCl, 5 mM Na3VO4; filter the 5×DP buffer through a 0.22 μm filter and store in aliquots at −80° C. The 5×DP buffer is diluted with H2O to 1×DP buffer containing 1 mM DTT and 25 mM NaF.
# (§3) Stock solutions of test compounds were prepared in DMSO. In a 96 well plate 30 μL solution of diluted test compounds at 5 mM in DMSO were prepared. Starting with this solution a 1:3 dilution series (9 steps) was prepared. For control experiments (no test compound) a buffer containing 2% DMSO was used.
# (§4) Molt4 cells (ATCC catalogue number CRL-1582) and Ramos cells (ATCC catalogue number CRL-1596) were grown in 1 L Spinner flasks (Integra Biosciences, #182101) in suspension in RPMI 1640 medium (Invitrogen, #21875-034) supplemented with 10% Fetal Bovine Serum (Invitrogen) at a density between 0.15×10^6 and 1.2×10^6 cells/mL. Cells were harvested by centrifugation, washed once with 1×PBS buffer (Invitrogen, #14190-094) and cell pellets were frozen in liquid nitrogen and subsequently stored at −80° C. Cells were homogenized in a Potter S homogenizer in lysis buffer: 50 mM Tris-HCl, 0.8% NP40, 5% glycerol, 150 mM NaCl, 1.5 mM MgCl2, 25 mM NaF, 1 mM sodium vanadate, 1 mM DTT, pH 7.5. One complete EDTA-free tablet (protease inhibitor cocktail, Roche Diagnostics, 1873580) per 25 mL buffer was added. The material was dounced 10 times using a mechanized POTTER S, transferred to 50 mL falcon tubes, incubated for 30 minutes on ice and spun down for 10 minutes at 20,000 g at 4° C. (10,000 rpm in Sorvall SLA600, precooled). The supernatant was transferred to an ultracentrifuge (UZ)-polycarbonate tube (Beckmann, 355654) and spun for 1 hour at 100.000 g at 4° C. (33.500 rpm in Ti50.2, precooled). The supernatant was transferred again to a fresh 50 mL falcon tube, the protein concentration was determined by a Bradford assay (BioRad) and samples containing 50 mg of protein per aliquot were prepared. The samples were immediately used for experiments or frozen in liquid nitrogen and stored frozen at −80° C.
# (§5) Cell lysate (approximately 50 mg protein per plate) was thawed in a water bath at room temperature and then stored on ice. To the thawed cell lysate 1×DP 0.8% NP40 buffer containing protease inhibitors (1 tablet for 25 mL buffer; EDTA-free protease inhibitor cocktail; Roche Diagnostics 1873580) was added in order to reach a final protein concentration of 10 mg/mL total protein. The diluted cell lysate was stored on ice. Mixed Molt4/Ramos lysate was prepared by combining one volume of Molt4 lysate and two volumes of Ramos lysate (ratio 1:2).
# (§6) Plates were sealed and incubated for 3 hours in a cold room on a plate shaker (Heidolph tiramax 1000) at 750 rpm. Afterwards the plate was washed 3 times with 230 μL washing buffer (1×DP 0.4% NP40). The filter plate was placed on top of a collection plate (Greiner bio-one, PP-microplate 96 well V-shape, 65120) and the beads were then eluted with 20 μL of sample buffer (100 mM Tris, pH 7.4, 4% SDS, 0.00025% bromophenol blue, 20% glycerol, 50 mM DTT). […]
# JAK2 = biological target: T2, JAK2 (Homo sapiens, UniProt O60674); experiment: Kinobeads assay, JAK2 (competition binding in cell lysate, dot blot detection); settings: mixed Molt4/Ramos lysate
# T2 construct: endogenous in cells; host or cells: Molt4 (ATCC CRL-1582) and Ramos (ATCC CRL-1596) cell lysate; mixed Molt4/Ramos lysate 1:2
# T2 sequence (O60674 whole entry): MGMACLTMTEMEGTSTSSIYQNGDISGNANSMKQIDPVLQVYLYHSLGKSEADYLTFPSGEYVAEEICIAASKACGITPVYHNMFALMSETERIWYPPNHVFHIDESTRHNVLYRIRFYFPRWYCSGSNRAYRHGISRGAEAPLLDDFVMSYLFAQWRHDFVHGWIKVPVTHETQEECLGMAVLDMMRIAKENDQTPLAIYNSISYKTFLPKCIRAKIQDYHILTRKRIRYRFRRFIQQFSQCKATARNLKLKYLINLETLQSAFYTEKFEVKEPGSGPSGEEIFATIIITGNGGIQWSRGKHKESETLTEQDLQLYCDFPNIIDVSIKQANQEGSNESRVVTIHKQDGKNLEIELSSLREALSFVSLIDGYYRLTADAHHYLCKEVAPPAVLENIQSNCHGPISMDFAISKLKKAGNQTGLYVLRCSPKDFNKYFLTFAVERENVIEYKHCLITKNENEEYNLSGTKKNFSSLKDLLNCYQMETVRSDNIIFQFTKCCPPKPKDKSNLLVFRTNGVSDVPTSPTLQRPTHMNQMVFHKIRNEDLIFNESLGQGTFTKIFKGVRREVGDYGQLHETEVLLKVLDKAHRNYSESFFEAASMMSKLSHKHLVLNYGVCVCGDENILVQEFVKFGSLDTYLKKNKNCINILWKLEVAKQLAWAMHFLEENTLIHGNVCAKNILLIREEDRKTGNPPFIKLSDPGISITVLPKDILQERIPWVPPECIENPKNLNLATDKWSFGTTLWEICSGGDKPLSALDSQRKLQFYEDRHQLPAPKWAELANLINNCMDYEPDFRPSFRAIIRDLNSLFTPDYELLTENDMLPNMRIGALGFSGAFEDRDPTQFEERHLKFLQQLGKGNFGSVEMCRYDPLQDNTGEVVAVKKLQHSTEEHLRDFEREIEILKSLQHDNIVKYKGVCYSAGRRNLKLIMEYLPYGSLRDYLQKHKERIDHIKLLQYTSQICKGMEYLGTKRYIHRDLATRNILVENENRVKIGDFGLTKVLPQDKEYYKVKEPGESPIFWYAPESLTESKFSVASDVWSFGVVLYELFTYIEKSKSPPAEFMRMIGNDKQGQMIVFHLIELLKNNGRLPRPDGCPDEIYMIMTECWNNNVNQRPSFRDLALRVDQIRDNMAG
# Experimental: as §1, §2, §3, §4, §5, §6
IC50 (JAK3),IC50 (JAK2),Structure (SMILES)
100 to 1000 nM,1000 to 10000 nM,"Cn1cc(Nc2ncc3cnn(C4CCN(C(=O)CC#N)CC4)c3n2)cn1 [Example 24, 3-(4-(6-((1-methyl-1H-pyrazol-4-yl)amino)-1H-pyrazolo[3,4-d]pyrimidin-1-yl)piperidin-1-yl)-3-oxopropanenitrile]"
100 to 1000 nM,> 10000 nM,"Cn1cc(Nc2ncc3cnn(C4CCCN(C(=O)CC#N)C4)c3n2)cn1 (stereo not drawn) [Example 25, 3-(3-(6-((1-methyl-1H-pyrazol-4-yl)amino)-1H-pyrazolo[3,4-d]pyrimidin-1-yl)piperidin-1-yl)-3-oxopropanenitrile]"
100 to 1000 nM,1000 to 10000 nM,"Cn1cc(Nc2ncc3cnn(CCC4CCCN(S(C)(=O)=O)C4)c3n2)cn1 (stereo not drawn) [Example 34, N-(1-methyl-1H-pyrazol-4-yl)-1-(2-(1-(methylsulfonyl)piperidin-3-yl)ethyl)-1H-pyrazolo[3,4-d]pyrimidin-6-amine]"
100 to 1000 nM,> 10000 nM,"Cn1cc(Nc2ncc3cnn(CC4CCN(S(=O)(=O)C5CC5)C4)c3n2)cn1 (stereo not drawn) [Example 43, 1-((1-(cyclopropylsulfonyl)pyrrolidin-3-yl)methyl)-N-(1-methyl-1H-pyrazol-4-yl)-1H-pyrazolo[3,4-d]pyrimidin-6-amine]"
100 to 1000 nM,1000 to 10000 nM,"COCCC(=O)N1CCCC(Cn2ncc3cnc(Nc4cnn(C)c4)nc32)C1 (stereo not drawn) [Example 27, 3-methoxy-1-(3-((6-((1-methyl-1H-pyrazol-4-yl)amino)-1H-pyrazolo[3,4-d]pyrimidin-1-yl)methyl)piperidin-1-yl)propan-1-one]"
< 100 nM,1000 to 10000 nM,"Cn1cc(Nc2ncc3cnn(CC4CCCN(CCS(C)(=O)=O)C4)c3n2)cn1 (stereo not drawn) [Example 46, N-(1-methyl-1H-pyrazol-4-yl)-1-((1-(2-(methylsulfonyl)ethyl)piperidin-3-yl)methyl)-1H-pyrazolo[3,4-d]pyrimidin-6-amine]"
< 100 nM,1000 to 10000 nM,"Cn1cc(Nc2ncc3cnn(CC4CCCN(CC#N)C4)c3n2)cn1 (stereo not drawn) [Example 54, 2-(3-((6-((1-methyl-1H-pyrazol-4-yl)amino)-1H-pyrazolo[3,4-d]pyrimidin-1-yl)methyl)piperidin-1-yl)acetonitrile]"
100 to 1000 nM,> 10000 nM,"COC(=O)N1CCCC(Cn2ncc3cnc(Nc4cnn(C)c4)nc32)C1 (stereo not drawn) [Example 38, methyl 3-((6-((1-methyl-1H-pyrazol-4-yl)amino)-1H-pyrazolo[3,4-d]pyrimidin-1-yl)methyl)piperidine-1-carboxylate]"
100 to 1000 nM,> 10000 nM,"CN(C)CC(=O)N1CCCC(Cn2ncc3cnc(Nc4cnn(C)c4)nc32)C1 (stereo not drawn) [Example 29, 2-(dimethylamino)-1-(3-((6-((1-methyl-1H-pyrazol-4-yl)amino)-1H-pyrazolo[3,4-d]pyrimidin-1-yl)methyl)piperidin-1-yl)ethanone]"
100 to 1000 nM,1000 to 10000 nM,"Cn1cc(Nc2ncc3cnn(CC4CCNC4)c3n2)cn1 (stereo not drawn) [Example 40, N-(1-methyl-1H-pyrazol-4-yl)-1-(pyrrolidin-3-ylmethyl)-1H-pyrazolo[3,4-d]pyrimidin-6-amine]"
< 100 nM,1000 to 10000 nM,Cn1cc(Nc2ncc3cnn(CC4CCCN(S(C)(=O)=O)C4)c3n2)cn1 (stereo not drawn) [Example 1]
100 to 1000 nM,> 10000 nM,"Cn1cc(Nc2ncc3cnn(CC4CN(CCC#N)C4)c3n2)cn1 [Example 49, 3-(3-((6-((1-methyl-1H-pyrazol-4-yl)amino)-1H-pyrazolo[3,4-d]pyrimidin-1-yl)methyl)azetidin-1-yl)propanenitrile]"
100 to 1000 nM,> 10000 nM,"Cn1cc(Nc2ncc3cnn(CC4CCN(S(C)(=O)=O)C4)c3n2)cn1 (stereo not drawn) [Example 48, N-(1-methyl-1H-pyrazol-4-yl)-1-((1-(methylsulfonyl)pyrrolidin-3-yl)methyl)-1H-pyrazolo[3,4-d]pyrimidin-6-amine]"
100 to 1000 nM,> 10000 nM,"CSCCC(=O)N1CCCC(Cn2ncc3cnc(Nc4cnn(CC(F)F)c4)nc32)C1 (stereo not drawn) [Example 56, 1-(3-((6-((1-(2,2-difluoroethyl)-1H-pyrazol-4-yl)amino)-1H-pyrazolo[3,4-d]pyrimidin-1-yl)methyl)piperidin-1-yl)-3-(methylthio)propan-1-one]"
100 to 1000 nM,> 10000 nM,"Cn1cc(Nc2ncc3cnn(C4CCCCC4)c3n2)cn1 [Example 8, 1-cyclohexyl-N-(1-methyl-1H-pyrazol-4-yl)-1H-pyrazolo[3,4-d]pyrimidin-6-amine]"
100 to 1000 nM,> 10000 nM,"COCCOC(=O)N1CCCC(Cn2ncc3cnc(Nc4cnn(C)c4)nc32)C1 (stereo not drawn) [Example 45, 2-methoxyethyl 3-((6-((1-methyl-1H-pyrazol-4-yl)amino)-1H-pyrazolo[3,4-d]pyrimidin-1-yl)methyl)piperidine-1-carboxylate]"
100 to 1000 nM,> 10000 nM,"CC(C1CCCCC1)n1ncc2cnc(Nc3cnn(C)c3)nc21 (stereo not drawn) [Example 17, 1-(1-Cyclohexylethyl)-N-(1-methyl-M-pyrazol-4-yl)-1H-pyrazolo[3,4-d]pyrimidin-6-amine]"
< 100 nM,1000 to 10000 nM,"Cn1cc(Nc2ncc3cnn(CC4CCCN(C(=O)CC#N)C4)c3n2)cn1 (stereo not drawn) [Example 26, 3-(3-((6-((1-methyl-1H-pyrazol-4-yl)amino)-1H-pyrazolo[3,4-d]pyrimidin-1-yl)methyl)piperidin-1-yl)-3-oxopropanenitrile]"
